Results as given in the supplement of paper PMC10307832.

Assays:
Assay in all cases: relative viability (nuclei count vs DMSO), 5 days (fraction); higher = more cells survive
[1] = compound: CN(C)C(=N)NC(=N)N [Metformin] + CS(=O)(=O)CCNCc1ccc(-c2ccc3ncnc(Nc4ccc(OCc5cccc(F)c5)c(Cl)c4)c3c2)o1 [Lapatinib] (partner 2 µM)
Summary of the method: (§1)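 Five library-drug doses in √10 steps were combined with a fixed anchor-drug dose, or a single drug was given alone, by pin tool to lung cancer cell lines in 1536-well plates the day after seeding. Nuclei were stained and counted after 5 days. Relative viability is the nuclei count in treated wells over that in vehicle wells, taken as the median of duplicate plates.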

[2] = compound: N#CC1(c2ccc(NC(=O)c3cccnc3NCc3ccncc3)cc2)CCCC1 [Apatinib] + CCNC(=O)c1noc(-c2cc(C(C)C)c(O)cc2O)c1-c1ccc(CN2CCOCC2)cc1 [Luminespib] (partner 0.01 µM)
Summary of the method: as §1

[3] = compound: CN(C)C(=N)NC(=N)N [Metformin] + CC1(C)CCC(c2ccc(Cl)cc2)=C(CN2CCN(c3ccc(C(=O)NS(=O)(=O)c4ccc(N[C@H](CCN5CCOCC5)CSc5ccccc5)c(S(=O)(=O)C(F)(F)F)c4)cc3)CC2)C1 [Navitoclax] (partner 0.5 µM)
Summary of the method: as §1

[4] = compound: N#CC1(c2ccc(NC(=O)c3cccnc3NCc3ccncc3)cc2)CCCC1 [Apatinib] + Cc1nc(Nc2ncc(C(=O)Nc3c(C)cccc3Cl)s2)cc(N2CCN(CCO)CC2)n1 [Dasatinib] (partner 0.075 µM)
Summary of the method: as §1

| Cell Line | relative viability ([1]; first compound 10 µM) | relative viability ([1]; first compound 31.62 µM) | relative viability ([1]; first compound 100 µM) | relative viability ([1]; first compound 316.23 µM) | relative viability ([1]; first compound 1000 µM) | relative viability ([2]; first compound 0.08 µM) | relative viability ([2]; first compound 0.253 µM) | relative viability ([2]; first compound 0.8 µM) | relative viability ([2]; first compound 2.53 µM) | relative viability ([2]; first compound 8 µM) | relative viability ([3]; first compound 10 µM) | relative viability ([3]; first compound 31.62 µM) | relative viability ([3]; first compound 100 µM) | relative viability ([3]; first compound 316.23 µM) | relative viability ([3]; first compound 1000 µM) | relative viability ([4]; first compound 0.08 µM) | relative viability ([4]; first compound 0.253 µM) | relative viability ([4]; first compound 0.8 µM) | relative viability ([4]; first compound 2.53 µM) | relative viability ([4]; first compound 8 µM) |
| --- | --- | --- | --- | --- | --- | --- | --- | --- | --- | --- | --- | --- | --- | --- | --- | --- | --- | --- | --- | --- |
| LCLC-97TM1 | 0.888 | 1.36 | 0.888 | 1.08 | 1.53 | 0.761 | 0.833 | 0.863 | 0.605 | 0.297 | 0.44 | 0.339 | 0.547 | 0.276 | 0.486 | 0.824 | 0.763 | 0.767 | 0.711 | 0.504 |
| NCI-H1915 |  | 1.07 | 0.973 | 0.976 | 1 | 0.891 | 0.852 | 0.737 | 0.692 | 0.544 |  | 0.794 | 0.702 | 0.749 | 0.806 | 0.323 | 0.32 | 0.293 | 0.321 | 0.36 |
| COR-L23 | 1.21 | 0.969 | 0.734 | 0.773 | 1.07 | 0.687 | 0.643 | 0.702 | 0.628 | 0.509 | 0.984 | 0.839 | 0.909 | 0.932 | 1.04 | 0.469 | 0.598 | 0.518 | 0.45 | 0.405 |
| NCI-H3122 | 0.871 | 0.872 | 0.89 | 0.846 | 0.819 | 0.0784 | 0.0827 | 0.0738 | 0.0782 | 0.0871 | 0.937 | 0.955 | 0.969 | 0.933 | 0.89 | 0.858 | 0.666 | 0.836 | 0.845 | 0.538 |
| LOU-NH91 | 0.784 | 0.775 | 0.725 | 0.755 | 0.71 | 0.354 | 0.363 | 0.386 | 0.356 | 0.354 | 0.867 | 0.717 | 0.751 | 0.766 | 0.767 | 0.505 | 0.552 | 0.498 | 0.528 | 0.471 |
| NCI-H2087 | 0.597 | 0.902 | 1.02 | 1.06 | 0.895 | 0.186 | 0.183 | 0.185 | 0.135 | 0.149 | 0.951 | 0.86 | 0.96 | 0.782 | 0.834 | 0.929 | 0.747 | 0.763 | 0.685 | 0.524 |
| LK-2 | 1.22 | 1.19 | 1.23 | 0.878 | 0.697 | 0.185 | 0.178 | 0.187 | 0.209 | 0.188 | 0.86 | 1.15 | 1.2 | 0.933 | 1.2 | 0.39 | 0.258 | 0.227 | 0.24 | 0.257 |
| NCI-H2347 | 0.582 | 0.881 | 1.04 | 0.832 | 1 | 0.501 | 0.415 | 0.404 | 0.416 | 0.789 | 0.633 | 0.694 | 0.802 | 0.746 | 0.716 | 0.343 | 0.26 | 0.371 | 0.276 | 0.352 |
| COR-L 105 | 0.415 | 0.36 | 0.462 | 0.426 | 0.405 | 0.796 | 0.789 | 0.896 | 0.697 | 0.67 | 0.812 | 0.923 | 0.843 | 0.654 | 0.571 | 0.357 | 0.349 | 0.351 | 0.3 | 0.269 |
| NCI-H1437 | 0.868 | 0.887 | 0.619 | 0.712 | 0.808 | 1.11 | 1.12 | 1.11 | 0.923 | 0.817 | 1.08 | 1.08 | 1.12 | 0.979 | 1.08 | 0.28 | 0.417 | 0.373 | 0.266 | 0.157 |
| SK-LU-1 | 0.632 | 0.88 | 0.844 | 0.694 | 0.812 | 0.196 | 0.201 | 0.202 | 0.182 | 0.186 | 0.891 | 0.777 | 0.976 | 0.926 | 0.953 | 0.182 | 0.207 | 0.184 | 0.167 | 0.175 |
| NCI-H1755 | 0.763 | 0.956 | 1.02 | 0.929 | 0.99 | 0.295 | 0.695 | 0.524 | 0.491 | 0.479 | 0.821 | 0.897 | 0.912 | 0.89 | 0.935 | 0.524 | 0.484 | 0.451 | 0.394 | 0.399 |
| NCI-H2405 | 0.932 | 1.13 | 1.01 | 1.07 | 0.556 | 0.675 | 0.695 | 0.653 | 0.621 | 0.491 | 0.869 | 1.26 | 0.988 | 1.07 | 1.09 | 0.215 | 0.207 | 0.202 | 0.159 | 0.192 |
| NCI-H1993 | 0.761 | 0.823 | 0.814 | 0.741 | 0.804 | 0.885 | 0.906 | 0.886 | 0.757 | 0.673 | 1.04 | 1.04 | 1.28 | 0.968 | 1.25 | 0.63 | 0.663 | 0.558 | 0.538 | 0.503 |
| NCI-H322M | 0.589 | 0.598 | 0.688 | 0.614 | 0.585 | 0.871 | 0.845 | 0.9 | 1.01 | 1.07 | 1.19 | 1.28 | 1.02 | 1.14 | 1.19 | 0.253 | 0.229 | 0.245 | 0.256 | 0.247 |
| EMC-BAC-2 | 0.886 | 0.951 | 0.891 | 0.843 | 0.925 | 1.22 | 1.29 | 1.14 | 1.09 | 0.987 | 1.1 | 1.17 | 1.1 | 1.09 | 1.15 | 0.32 | 0.428 | 0.349 | 0.282 | 0.293 |
